Data: ChEMBL document CHEMBL1201862, “PubChem BioAssay data set” (2004)
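Briefly, cells in 96-well plates were exposed to five compound concentrations for 48 h, and endpoints were estimated by linear interpolation. GI50 = concentration required for 50% inhibition of growth.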 Active and inactive are the calls of the source. Rule as the data show it: active = GI50 up to about 1.1 µM and inactive = higher. Where a SMILES comes first, the peptide text is derived from it. The star is where a group is joined. Cbz = O=C(OCc1ccccc1)*

Legend:
Assay in all cases: DTP human tumour cell line panel, 48 h
NCI/ADR-RES = tested on: NCI/ADR-RES
LOX IMVI = tested on: LOX IMVI
MDA-N = tested on: MDA-N
BT-549 = tested on: BT-549
UACC-257 = tested on: UACC-257
M14 = tested on: M14
SK-MEL-2 = tested on: SK-MEL-2
IGROV-1 = tested on: IGROV-1
OVCAR-4 = tested on: OVCAR-4
KM12 = tested on: KM12
NCI-H23 = tested on: NCI-H23
NCI-H226 = tested on: NCI-H226
HL-60 = tested on: HL-60
DU-145 = tested on: DU-145
UACC-62 = tested on: UACC-62
NCI-H522 = tested on: NCI-H522
MOLT-4 = tested on: MOLT-4
T47D = tested on: T47D
K562 = tested on: K562

Measured: GI50

CC(C)(C)c1cc(/C=C/C(=O)CC(=O)/C=C/c2cc(C(C)(C)C)c(O)c(C(C)(C)C)c2)cc(C(C)(C)C)c1O
inactive: NCI/ADR-RES > 50 µM | LOX IMVI > 50 µM | MDA-N > 50 µM | BT-549 > 50 µM | UACC-257 > 50 µM | M14 > 50 µM | SK-MEL-2 > 50 µM | IGROV-1 > 50 µM | OVCAR-4 > 50 µM | KM12 28.4 µM | NCI-H23 > 50 µM | NCI-H226 > 50 µM | HL-60 > 50 µM | DU-145 > 50 µM | UACC-62 > 50 µM | NCI-H522 > 50 µM

O=c1ccn(C2OC(CO)C(O)C2F)c(=O)n1Cc1ccccc1 (stereo unspecified)
inactive: NCI/ADR-RES > 100 µM | LOX IMVI > 100 µM | MDA-N > 100 µM | UACC-257 > 100 µM | IGROV-1 > 100 µM | MOLT-4 > 100 µM | T47D > 100 µM | KM12 > 100 µM | NCI-H23 > 100 µM | NCI-H226 > 100 µM | HL-60 > 100 µM | DU-145 > 100 µM | K562 > 100 µM | UACC-62 > 100 µM | NCI-H522 > 100 µM

CCOC(=O)[C@@H]1OC(c2ccccc2)O[C@H]1C(=O)OCC
inactive: NCI/ADR-RES > 100 µM | LOX IMVI > 100 µM | MDA-N > 100 µM | UACC-257 > 100 µM | M14 > 100 µM | SK-MEL-2 > 100 µM | IGROV-1 > 100 µM | OVCAR-4 > 100 µM | MOLT-4 > 100 µM | KM12 > 100 µM | NCI-H23 > 100 µM | NCI-H226 > 100 µM | DU-145 > 100 µM | K562 > 100 µM | UACC-62 > 100 µM

CCOC(=O)CCC(NC(=O)CNC(=O)CNC(=O)C(CCC(=O)OCC)NC(=O)C(CCC(=O)OCC)NC(=O)C(CCC(=O)OCC)NC(=O)OCc1ccccc1)C(=O)NC(CCC(=O)OCC)C(=O)NC(CCC(=O)OCC)C(=O)OCC (stereo unspecified) (Cbz-E(OEt)E(OEt)E(OEt)GGE(OEt)E(OEt)E(OEt)-OEt; configuration not given here)
inactive: NCI/ADR-RES > 75 µM | LOX IMVI > 75 µM | MDA-N > 75 µM | UACC-257 > 75 µM | M14 > 75 µM | SK-MEL-2 > 75 µM | IGROV-1 > 75 µM | OVCAR-4 > 75 µM | MOLT-4 > 75 µM | KM12 > 75 µM | NCI-H23 > 75 µM | DU-145 > 75 µM | UACC-62 > 75 µM | NCI-H522 > 75 µM

Cc1ccc(/C=C2\NC(=S)N(CN3CCCCC3)C2=O)cc1
inactive: NCI/ADR-RES 57.7 µM | LOX IMVI 34.4 µM | MDA-N 65.2 µM | M14 55.1 µM | SK-MEL-2 > 100 µM | IGROV-1 > 100 µM | OVCAR-4 39.4 µM | MOLT-4 93.3 µM | KM12 > 100 µM | NCI-H23 > 100 µM | NCI-H226 55.7 µM | DU-145 36.1 µM | K562 43 µM | UACC-62 33.3 µM | NCI-H522 35.8 µM

Cc1ccc2c(c1)CC1(Cc3cc(C)ccc3C1=O)C2=O
inactive: NCI/ADR-RES > 100 µM | LOX IMVI > 100 µM | MDA-N > 100 µM | UACC-257 > 100 µM | M14 > 100 µM | SK-MEL-2 > 100 µM | IGROV-1 > 100 µM | OVCAR-4 > 100 µM | MOLT-4 > 100 µM | T47D > 100 µM | NCI-H23 > 100 µM | HL-60 > 100 µM | DU-145 > 100 µM | K562 > 100 µM | NCI-H522 > 100 µM

O=C(NCCCl)NCc1ccccc1
inactive: NCI/ADR-RES > 100 µM | LOX IMVI > 100 µM | MDA-N > 100 µM | UACC-257 > 100 µM | SK-MEL-2 > 100 µM | IGROV-1 > 100 µM | OVCAR-4 > 100 µM | MOLT-4 > 100 µM | T47D > 100 µM | KM12 > 100 µM | NCI-H23 > 100 µM | NCI-H226 > 100 µM | HL-60 > 100 µM | DU-145 > 100 µM | K562 > 100 µM | UACC-62 > 100 µM | NCI-H522 > 100 µM

NC(=O)Nc1c(Cl)cc(S(N)(=O)=O)cc1Cl
inactive: NCI/ADR-RES > 100 µM | LOX IMVI > 100 µM | MDA-N > 100 µM | BT-549 > 100 µM | UACC-257 > 100 µM | M14 > 100 µM | SK-MEL-2 > 100 µM | IGROV-1 > 100 µM | OVCAR-4 > 100 µM | MOLT-4 > 100 µM | KM12 > 100 µM | NCI-H23 > 100 µM | NCI-H226 > 100 µM | HL-60 > 100 µM | DU-145 > 100 µM | K562 > 100 µM | UACC-62 > 100 µM | NCI-H522 > 100 µM

C#CC1=CC(=O)C(OC)=CC1=O
inactive: NCI/ADR-RES 32.9 µM | LOX IMVI 17.6 µM | MDA-N 19.1 µM | UACC-257 41.6 µM | M14 16.5 µM | SK-MEL-2 15.7 µM | MOLT-4 3.25 µM | T47D 23 µM | KM12 58.7 µM | NCI-H23 20.9 µM | NCI-H226 19.3 µM | HL-60 2.44 µM | DU-145 17.8 µM | K562 5.06 µM | UACC-62 15.7 µM | NCI-H522 1.77 µM

COC(=O)/C=C(\C)C(=O)N(C)c1ccccc1I
inactive: NCI/ADR-RES > 100 µM | LOX IMVI > 100 µM | MDA-N > 100 µM | UACC-257 > 100 µM | M14 > 100 µM | SK-MEL-2 > 100 µM | OVCAR-4 > 100 µM | MOLT-4 > 100 µM | T47D > 100 µM | KM12 > 100 µM | NCI-H23 > 100 µM | NCI-H226 > 100 µM | DU-145 > 100 µM | K562 > 100 µM | UACC-62 > 100 µM

NC1=NC(=O)[C@H](CSCc2ccccc2)N1C(=O)OCc1ccccc1
inactive: NCI/ADR-RES > 100 µM | LOX IMVI > 100 µM | MDA-N > 100 µM | BT-549 > 100 µM | UACC-257 > 100 µM | SK-MEL-2 > 100 µM | IGROV-1 > 100 µM | OVCAR-4 > 100 µM | MOLT-4 > 100 µM | KM12 > 100 µM | NCI-H23 > 100 µM | NCI-H226 > 100 µM | HL-60 > 100 µM | DU-145 > 100 µM | K562 > 100 µM | UACC-62 > 100 µM | NCI-H522 > 100 µM

Nc1nc(NNc2cccc(F)c2)cc(=O)[nH]1
inactive: NCI/ADR-RES 44.9 µM | LOX IMVI 21.1 µM | BT-549 77.1 µM | UACC-257 > 100 µM | M14 56.5 µM | IGROV-1 61.9 µM | OVCAR-4 51.6 µM | MOLT-4 27.7 µM | KM12 22.4 µM | NCI-H23 48.3 µM | NCI-H226 > 100 µM | HL-60 23.1 µM | DU-145 81.3 µM | K562 36.1 µM

Cc1[nH]c(-c2ccccc2)c(-c2ccc(Cl)cc2)c1C(=O)ONC(=O)c1ccccc1
inactive: NCI/ADR-RES 3.23 µM | LOX IMVI 1.39 µM | MDA-N 2 µM | BT-549 2.56 µM | UACC-257 6.82 µM | M14 4.55 µM | SK-MEL-2 2.9 µM | IGROV-1 1.16 µM | OVCAR-4 2.62 µM | MOLT-4 2.69 µM | KM12 7.24 µM | NCI-H23 4.02 µM | NCI-H226 3.61 µM | HL-60 1.5 µM | DU-145 1.58 µM | K562 2.65 µM | UACC-62 10.1 µM | NCI-H522 2.1 µM

O=c1c2cc(S(=O)(=O)Nc3ccc(Cl)cc3Cl)ccc2ncn1NS(=O)(=O)c1cccc2ccccc12
inactive: NCI/ADR-RES 31.3 µM | LOX IMVI 15.5 µM | MDA-N 48 µM | BT-549 16.5 µM | UACC-257 77.6 µM | M14 93.8 µM | SK-MEL-2 38.1 µM | IGROV-1 20.7 µM | OVCAR-4 41.7 µM | MOLT-4 18.2 µM | KM12 22.4 µM | NCI-H23 40.4 µM | NCI-H226 18.6 µM | HL-60 14.5 µM | DU-145 36.5 µM | K562 63.5 µM | UACC-62 28.9 µM | NCI-H522 24 µM

N#Cc1nc(C(=O)c2ccccc2)oc1N
inactive: LOX IMVI > 100 µM | MDA-N > 100 µM | UACC-257 > 100 µM | M14 > 100 µM | SK-MEL-2 > 100 µM | IGROV-1 64.9 µM | OVCAR-4 > 100 µM | MOLT-4 > 100 µM | KM12 > 100 µM | HL-60 > 100 µM | DU-145 > 100 µM | K562 > 100 µM | UACC-62 > 100 µM

CCCc1cc(=O)oc2c3c(c4c(c12)OC(C)(C)C=C4)O[C@@H](C)[C@H](C)C3=O
inactive: NCI/ADR-RES 12.5 µM | LOX IMVI 18.7 µM | MDA-N 17.3 µM | BT-549 13.7 µM | UACC-257 19.7 µM | IGROV-1 12.9 µM | MOLT-4 6.61 µM | KM12 13.6 µM | NCI-H23 17 µM | NCI-H226 18.2 µM | HL-60 4.99 µM | DU-145 19.5 µM | K562 6.46 µM | NCI-H522 13.6 µM

COc1ccc(C2C3=C(COC3=O)Oc3cc4c(cc32)OCO4)c(OC)c1 (stereo unspecified)
inactive: NCI/ADR-RES 10 µM | LOX IMVI 4.31 µM | MDA-N 2.09 µM | BT-549 22.9 µM | UACC-257 47.9 µM | M14 15 µM | IGROV-1 12.9 µM | OVCAR-4 8.11 µM | MOLT-4 4.28 µM | KM12 5.19 µM | NCI-H23 19 µM | NCI-H226 31.8 µM | HL-60 4.34 µM | DU-145 26.3 µM | K562 4.3 µM | UACC-62 6.79 µM
